According to patent publication US8557784B2, “Glycyrrhizinates of morphinan derivatives” (Standard Chem. & Pharm. Co., Ltd., priority 2011, dated 2013):
Counter-ions that a name gives are not always drawn.

Experiments:
e-NOS = e-NOS expression in Wistar rat pulmonary artery (Western blot); assay type: cell-based; settings: rat pulmonary artery incubated 2 hours with 0.01 mg/ml (10^-5 M); actin as internal control; FIG. 1
Procedure: The e-NOS expression of dextromethorphan glycyrrhizinate and dimemorfan glycyrrhizinate are carried out via the following procedures.
The blank control group were not added with dextromethorphan glycyrrhizinate or dimemorfan glycyrrhizinate. After incubated for 2 hours, the pulmonary artery were lysed in ice-cold homogenization buffer. The homogenates were centrifuged at 13,000 rpm for 10 minutes at 4° C. The protein concentration was determined by the method of Bradford. Samples were denatured and subjected to sodium dodecylsulfate polyacrylamide gel electrophoresis (SDS-PAGE) using a 7.5% running gel. Protein were transferred to polyvinylidene difluoride (PVDF) membrane, and the PVDF membrane was incubated successively at room temperature with 5% nonfat milk-0.1% Tween-Tris buffered saline for 1 hour, with rabbit antibodies specific for anti-eNOS for 1 hour, and with horseradish peroxidase conjugated anti-rabbit IgG antibodies (HRP-conjugated anti-rabbit IgG Ab) for 1 hour. After each incubation, the membrane was washed extensively with 0.1% Tween-Tris buffered saline. The immunoreactive bands were detected by ECL reagents.
The expressions of actins are also tested at the same time to be the internal control and are depicted in the middle panel of FIG. 1.

[1] = Solubility in water: water added by degrees until 0.1 g of compound fully dissolves; settings: for Water quantity for dissolving 0.1 g solute: 28° C.
[2] = in words; cited from earlier work

Row | Molecule | e-NOS expression (e-NOS) | Solubility (28° C.) [1] | Water quantity for dissolving 0.1 g solute [1] | Solubility in water [2]
1 | dextromethorphan glycyrrhizinate | good e-NOS expression |  |  | 
2 | dimemorfan glycyrrhizinate | good e-NOS expression | 0.05% | 200 mL | 
3 | COc1ccc2c(c1)[C@]13CCCC[C@@H]1[C@H](C2)N(C)CC3 [Dextromethorphan hydrobromide] |  | 2.5% |  | 
4 | Dimemorfan phosphate |  | 2.5% | 4 mL | 
5 | COc1ccc2c(c1)[C@]13CCCC[C@@H]1[C@H](C2)N(C)CC3 [dextromethorphan] |  |  |  | water insoluble
